Assay results taken from PubChem BioAssay (NCI).
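Where inhibition never reached the appropriate level, the endpoint shown equals the highest concentration tested. Otherwise, values were interpolated linearly from a five-concentration, 48-hour dose response in 96-well plates. GI50 marks 50% less growth. TGI marks complete inhibition of growth.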

These compounds were tested on HOP-92 NSCLC (assay: growth of human tumour cells (NCI), 48 h).
`Nc1nc(-n2c(-c3ccccc3)nc3c(Br)cc(Br)cc3c2=O)nnc1-c1cccc(Cl)c1Cl` showed a GI50 of 38.5 µM and a TGI greater than 100 µM.
`CCCCCCCCCCCC(=O)OCCOCCOCCOCCOCCOCc1ccccc1` gave a TGI greater than 100 µM.
Compound `O=C(CCc1nc(=S)[nH][nH]1)Nc1cc(Cl)c(Cl)cc1Cl` has a TGI greater than 100 µM.
With `COc1ccc(CC2c3cc4c(cc3CCN2C)OCO4)c(C=O)c1OC` (centres undefined) the TGI was greater than 100 µM.
`O=C(Nc1nc2ccc([N+](=O)[O-])cc2s1)C(=O)C(C1OC(=O)c2ccccc21)[N+](=O)[O-]` (centres undefined) gave a TGI of 82.9 µM.
`Cc1ccc(Cl)c2c(N=Nc3ccccc3[N+](=O)[O-])c(O)[nH]c12` was tested, and the TGI was greater than 100 µM.
In the case of `FC(F)(F)c1cccc(Nc2nc(-c3ccccc3)nc3ncccc23)c1`, the GI50 is reported as 4.65 µM and the TGI is reported as 18 µM.
`COC(=O)c1ccccc1NC(=O)C(=O)Cc1nc2c3c(ccc2[nH]c1=O)C(=O)c1ccccc1C3=O` was tested, and the TGI was 92.9 µM.
Compound `Cc1ccc(S(=O)(=O)OC[C@@H]2CO2)cc1` has a TGI greater than 100 µM.
Work on `O=C(CC(=O)c1cccc2ccccc12)C(=O)Nc1ccc(Cl)cc1` yielded a TGI greater than 100 µM.
`C=CCO[C@H]1CO[C@H]2[C@@H]1OC[C@@H]2Oc1ccc(Nc2ccnc(Nc3ccc(O[C@H]4CO[C@H]5[C@@H]4OC[C@@H]5OCC=C)c(Cl)c3)n2)cc1Cl` showed a GI50 of 1.66 µM and a TGI of 3.3 µM.
Work on `OCc1cc2ccccc2c2c3c(ccc12)OCO3` yielded a GI50 of 14.7 µM and a TGI of 58.2 µM.
`CC1(C(=O)O)CCC[C@@]2(C)C1CC[C@@]1(C)c3cocc3CCC21` (some centres undefined) showed a TGI greater than 100 µM.
For `CCn1c(C)nn2c(=O)c3ccccc3nc2c1=O`, the TGI was greater than 100 µM.
`COc1cnc2c(c1)C(=O)c1c-2n(CCCN2CCOCC2)c(=O)c2cc(F)ccc12` was tested, and the GI50 was 0.858 µM and the TGI was 6.86 µM.
In the case of `CCOC(=O)CCC1(C(=O)OCC)CCCCC1=O` (centres undefined), the TGI is reported as greater than 100 µM.
Compound `CCOC1Oc2ccccc2C(=O)/C1=C/Nc1ccc(C(C)=O)cc1` (centres undefined) has a GI50 of 25.6 µM and a TGI greater than 100 µM.
Work on `Cc1nc2c(ccc3ncccc32)[nH]1` yielded a TGI greater than 100 µM.
`CCN1CCN(Cc2ccc(NC(=O)c3cccc(C#Cc4cccc5[nH]nc(N)c45)c3)cc2C(F)(F)F)CC1` was tested, and the GI50 was 0.35 µM and the TGI was 1.89 µM.
With `CC(C)=CCC\C(C)=C/C=C/C(C)=C\C=C\C(C)=C/C=C/C=C(C)\C=C\C=C(C)/C=C/C=C(/C)CCC=C(C)C` the TGI was greater than 100 µM.
In the case of `CC(=O)[CH-]C(=O)c1ccccc1.CC(=O)[CH-]C(=O)c1ccccc1.CN(C)c1ccc([O-])cc1.CN(C)c1ccc([O-])cc1.Cl.[Ti+4]`, the GI50 is reported as 14.9 µM and the TGI is reported as 27.5 µM.
Compound `CC1(C)C(=O)/C=C\C(=O)C(C)(C)C2=CC=C(O2)C(C)(C)C(=O)/C=C\C(=O)C(C)(C)C2=CC=C1O2` has a TGI greater than 100 µM.
`COC(=O)CC[N+]1=CCC(c2ccccc2)(c2ccccc2)O1` showed a TGI greater than 100 µM.
With `CCN(CC)N=Nc1c(C(N)=O)n[nH]c1C` the TGI was 87.8 µM.
Work on `Nc1ccccc1S(=O)(=O)N(CC(=O)O)c1ccccc1` yielded a TGI greater than 100 µM.
Compound `Cc1cc(NS(=O)(=O)c2ccc(Nc3c4ccccc4nc4c(C(=O)N5CCN(CCOS(C)(=O)=O)CC5)cccc34)cc2)no1` has a TGI greater than 100 µM.
`NC1=NCCC1(c1ccccc1)c1ccccn1` (centres undefined) showed a TGI greater than 100 µM.
`CC1CCc2nc[nH]c(=O)c21` (centres undefined) showed a GI50 greater than 100 µM and a TGI greater than 100 µM.
In the case of `COC1/C=C/OC2(C)Oc3c(C)c(O)c4c(O)c(c(/C=N/Nc5ccc([N+](=O)[O-])cc5[N+](=O)[O-])c(O)c4c3C2=O)NC(=O)C(C)=C/C=C/C(C)C(O)C(C)C(O)C(C)C(OC(C)=O)C1C` (centres undefined), the GI50 is reported as 0.885 µM and the TGI is reported as 2.04 µM.
In the case of `Cc1cnc(NCCCN(C)C)c2c1[nH]c1ccc3cc(O)ccc3c12`, the TGI is reported as 1.31 µM.

The compounds below were run on SF-539 CNS (assay: growth of human tumour cells (NCI), 48 h).
In the case of `Nc1nc(-n2c(-c3ccccc3)nc3c(Br)cc(Br)cc3c2=O)nnc1-c1cccc(Cl)c1Cl`, the GI50 is reported as 7.8 µM and the TGI is reported as 40.4 µM.
In the case of `Cc1c(C(=O)C/C(=N/NC(=O)c2ccccc2O)C(=O)Nc2ccccc2C(C)C)[n+](=O)c2ccccc2n1[O-]`, the TGI is reported as greater than 100 µM.
In the case of `CCCC1C(=O)CCc2c(OC)ccc(OC)c21` (centres undefined), the TGI is reported as greater than 100 µM.
With `O=C(CCc1nc(=S)[nH][nH]1)Nc1cc(Cl)c(Cl)cc1Cl` the TGI was greater than 100 µM.
`COc1ccc(CC2c3cc4c(cc3CCN2C)OCO4)c(C=O)c1OC` (centres undefined) showed a TGI greater than 100 µM.
In the case of `O=C(Nc1nc2ccc([N+](=O)[O-])cc2s1)C(=O)C(C1OC(=O)c2ccccc21)[N+](=O)[O-]` (centres undefined), the TGI is reported as greater than 100 µM.
For `Cc1cc(-c2nc(C(=O)Nc3cc4oc(N5CCOCC5)nc4nc3N3CC[C@@H](O)C3)co2)ccn1`, the GI50 was 24 µM and the TGI was greater than 100 µM.
In the case of `COC(=O)C1(C(C)C)CCc2c(OC)ccc(OC)c2C1=O` (centres undefined), the TGI is reported as greater than 100 µM.
Compound `Cc1ccc(Cl)c2c(N=Nc3ccccc3[N+](=O)[O-])c(O)[nH]c12` has a TGI of 48.6 µM.
`FC(F)(F)c1cccc(Nc2nc(-c3ccccc3)nc3ncccc23)c1` gave a GI50 of 5.06 µM and a TGI of 17.5 µM.
For `COC(=O)c1ccccc1NC(=O)C(=O)Cc1nc2c3c(ccc2[nH]c1=O)C(=O)c1ccccc1C3=O`, the TGI was greater than 100 µM.
For `Cc1ccc(S(=O)(=O)OC[C@@H]2CO2)cc1`, the TGI was greater than 100 µM.
Work on `O=C(CC(=O)c1cccc2ccccc12)C(=O)Nc1ccc(Cl)cc1` yielded a TGI greater than 100 µM.
`C=CCO[C@H]1CO[C@H]2[C@@H]1OC[C@@H]2Oc1ccc(Nc2ccnc(Nc3ccc(O[C@H]4CO[C@H]5[C@@H]4OC[C@@H]5OCC=C)c(Cl)c3)n2)cc1Cl` showed a GI50 of 1.83 µM and a TGI of 3.25 µM.
Work on `OCc1cc2ccccc2c2c3c(ccc12)OCO3` yielded a GI50 of 23.2 µM and a TGI of 87 µM.
`CC1(C(=O)O)CCC[C@@]2(C)C1CC[C@@]1(C)c3cocc3CCC21` (some centres undefined) showed a TGI greater than 100 µM.
`CCn1c(C)nn2c(=O)c3ccccc3nc2c1=O` showed a TGI greater than 100 µM.
`COc1cnc2c(c1)C(=O)c1c-2n(CCCN2CCOCC2)c(=O)c2cc(F)ccc12` gave a GI50 of 0.288 µM and a TGI of 1.08 µM.
`CCOC(=O)CCC1(C(=O)OCC)CCCCC1=O` (centres undefined) gave a TGI greater than 100 µM.
`CCOC1Oc2ccccc2C(=O)/C1=C/Nc1ccc(C(C)=O)cc1` (centres undefined) was tested, and the GI50 was 23.9 µM and the TGI was 56.6 µM.
In the case of `Cc1nc2c(ccc3ncccc32)[nH]1`, the TGI is reported as greater than 100 µM.
For `CCN1CCN(Cc2ccc(NC(=O)c3cccc(C#Cc4cccc5[nH]nc(N)c45)c3)cc2C(F)(F)F)CC1`, the GI50 was 0.205 µM and the TGI was 0.709 µM.
With `Cc1cc(N(CCC#N)CCC#N)ccc1N=Nc1ccc(S(N)(=O)=O)cc1` the TGI was greater than 100 µM.
`CC(C)=CCC\C(C)=C/C=C/C(C)=C\C=C\C(C)=C/C=C/C=C(C)\C=C\C=C(C)/C=C/C=C(/C)CCC=C(C)C` showed a TGI greater than 100 µM.
`CC(=O)[CH-]C(=O)c1ccccc1.CC(=O)[CH-]C(=O)c1ccccc1.CN(C)c1ccc([O-])cc1.CN(C)c1ccc([O-])cc1.Cl.[Ti+4]` gave a GI50 of 19 µM and a TGI greater than 31.6 µM.
`COC(=O)CC[N+]1=CCC(c2ccccc2)(c2ccccc2)O1` was tested, and the TGI was greater than 100 µM.
`CCN(CC)N=Nc1c(C(N)=O)n[nH]c1C` was tested, and the TGI was greater than 100 µM.
In the case of `CCC[CH2][Sn]([CH2]CCC)([S]c1cccc2cccnc12)[S]c1cccc2cccnc12`, the GI50 is reported as 0.234 µM and the TGI is reported as 0.617 µM.
With `OCC1=CC(NC2CC(CO)C(O)C(O)C2O)C(O)C(O)C1O` (centres undefined) the TGI was greater than 100 µM.
Compound `Nc1ccccc1S(=O)(=O)N(CC(=O)O)c1ccccc1` has a TGI greater than 100 µM.
With `CCOC(=O)C(C)(C)Oc1ccc2c(-c3ccccc3)cc(=O)oc2c1` the TGI was 86.5 µM.
`Cc1cc(NS(=O)(=O)c2ccc(Nc3c4ccccc4nc4c(C(=O)N5CCN(CCOS(C)(=O)=O)CC5)cccc34)cc2)no1` showed a TGI greater than 100 µM.
`NC1=NCCC1(c1ccccc1)c1ccccn1` (centres undefined) showed a TGI greater than 100 µM.
For `CC1CCc2nc[nH]c(=O)c21` (centres undefined), the GI50 was greater than 100 µM and the TGI was greater than 100 µM.
In the case of `CNC(=S)OCCC(C)CCCC(C)C` (centres undefined), the TGI is reported as 30.6 µM.
For `COC1/C=C/OC2(C)Oc3c(C)c(O)c4c(O)c(c(/C=N/Nc5ccc([N+](=O)[O-])cc5[N+](=O)[O-])c(O)c4c3C2=O)NC(=O)C(C)=C/C=C/C(C)C(O)C(C)C(O)C(C)C(OC(C)=O)C1C` (centres undefined), the GI50 was 1.9 µM and the TGI was 19.4 µM.
Compound `Cc1cnc(NCCCN(C)C)c2c1[nH]c1ccc3cc(O)ccc3c12` has a TGI of 1.64 µM.

These compounds were tested on UACC-257 melanoma (assay: growth of human tumour cells (NCI), 48 h).
With `Nc1nc(-n2c(-c3ccccc3)nc3c(Br)cc(Br)cc3c2=O)nnc1-c1cccc(Cl)c1Cl` the GI50 was 22.3 µM and the TGI was greater than 100 µM.
In the case of `Cc1c(C(=O)C/C(=N/NC(=O)c2ccccc2O)C(=O)Nc2ccccc2C(C)C)[n+](=O)c2ccccc2n1[O-]`, the TGI is reported as greater than 100 µM.
With `CCCCCCCCCCCC(=O)OCCOCCOCCOCCOCCOCc1ccccc1` the TGI was greater than 100 µM.
`CCCC1C(=O)CCc2c(OC)ccc(OC)c21` (centres undefined) gave a TGI greater than 100 µM.
Work on `O=C(CCc1nc(=S)[nH][nH]1)Nc1cc(Cl)c(Cl)cc1Cl` yielded a TGI greater than 100 µM.
In the case of `COc1ccc(CC2c3cc4c(cc3CCN2C)OCO4)c(C=O)c1OC` (centres undefined), the TGI is reported as greater than 100 µM.
`O=C(Nc1nc2ccc([N+](=O)[O-])cc2s1)C(=O)C(C1OC(=O)c2ccccc21)[N+](=O)[O-]` (centres undefined) gave a TGI greater than 100 µM.
Work on `Cc1cc(-c2nc(C(=O)Nc3cc4oc(N5CCOCC5)nc4nc3N3CC[C@@H](O)C3)co2)ccn1` yielded a GI50 of 88.8 µM and a TGI greater than 100 µM.
For `COC(=O)C1(C(C)C)CCc2c(OC)ccc(OC)c2C1=O` (centres undefined), the TGI was greater than 100 µM.
`Cc1ccc(Cl)c2c(N=Nc3ccccc3[N+](=O)[O-])c(O)[nH]c12` gave a TGI greater than 100 µM.
For `COC(=O)c1ccccc1NC(=O)C(=O)Cc1nc2c3c(ccc2[nH]c1=O)C(=O)c1ccccc1C3=O`, the TGI was 62.8 µM.
In the case of `Cc1ccc(S(=O)(=O)OC[C@@H]2CO2)cc1`, the TGI is reported as greater than 100 µM.
In the case of `O=C(CC(=O)c1cccc2ccccc12)C(=O)Nc1ccc(Cl)cc1`, the TGI is reported as greater than 100 µM.
